Consider 16 compounds from patent publication US9999619B2, “Piperidin-4-yl azetidine derivatives as JAK1 inhibitors” (Incyte Corporation, priority 2010, dated 2018).

Common to all, as to type: biochemical
Assay [1] has as its target human JAK1 (a.a. 837-1142) (Homo sapiens, UniProt P23458). The assay can be described thus: In vitro JAK kinase assay (HTRF, phosphorylation of a biotinylated peptide), JAK1. The settings on record: measured at 1 mM ATP. Put shortly:
(§1)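 Phosphorylation of a biotinylated peptide by purified His-tagged JAK catalytic domains (insect-cell baculovirus expression) ran 1 hr at room temperature. After stopping with EDTA, Eu-Py20 and SA-APC were bound for 40 minutes and HTRF measured.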
Background: TR-FRET usually uses a lanthanide donor and a delayed reading to cut background.

The target in assay [2] is human JAK1 (a.a. 837-1142). The assay is described as above. The conditions noted are these: ratio of JAK2 IC50 to JAK1 IC50, measured at 1 mM ATP. Put shortly:
as §1

A further assay has as its target Jak2 (a.a. 828-1132) (Homo sapiens (Human), UniProt O60674). Nature of the assay: In vitro JAK kinase assay (HTRF, phosphorylation of a biotinylated peptide), JAK2. The settings on record: measured at 1 mM ATP. Put shortly: as §1

Sequence of Jak2 (a.a. 828-1132) (O60674 828-1132): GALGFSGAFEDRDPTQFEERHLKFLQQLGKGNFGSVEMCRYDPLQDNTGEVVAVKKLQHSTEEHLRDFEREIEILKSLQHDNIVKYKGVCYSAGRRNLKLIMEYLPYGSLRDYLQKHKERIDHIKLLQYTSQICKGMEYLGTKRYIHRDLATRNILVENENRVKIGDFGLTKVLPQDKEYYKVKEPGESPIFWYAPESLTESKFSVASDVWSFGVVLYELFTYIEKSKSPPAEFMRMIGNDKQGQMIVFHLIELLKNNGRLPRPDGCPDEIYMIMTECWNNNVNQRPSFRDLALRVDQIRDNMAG

For the compound `N#CCC1(n2cc(-c3ncnc4[nH]ccc34)cn2)CN(C2CCN(C(=O)c3ccsc3)CC2)C1` [Example 15, {3-[4-(7H-pyrrolo[2,3-d]pyrimidin-4-yl)-1H-pyrazol-1-yl]-1-[1-(3-thienylcarbonyl)piperidin-4-yl]azetidin-3-yl}acetonitrile], the IC50 in assay [1] was in the range of 5 to 20 nM; at Jak2 (a.a. 828-1132) it was 10 to 50 nM. Also, the “IC50 Ratio JAK2/JAK1” value in assay [2] is 5.3.

Take `Cc1cccc(Cl)c1NC(=O)N1CCC(N2CC(CC#N)(n3cc(-c4ncnc5[nH]ccc45)cn3)C2)CC1` [Example 161, N-(2-chloro-6-methylphenyl)-4-{3-(cyanomethyl)-3-[4-(7H-pyrrolo[2,3-d]pyrimidin-4-yl)-1H-pyrazol-1-yl]azetidin-1-yl}piperidine-1-carboxamide]: the IC50 was not above 5 nM in assay [1] and 10 to 50 nM on Jak2 (a.a. 828-1132). In assay [2], the “IC50 Ratio JAK2/JAK1” value was 12.1.

Regarding `N#CCC1(n2cc(-c3ncnc4[nH]ccc34)cn2)CN(C2CCN(C(=O)C3CCC(F)(F)CC3)CC2)C1` [Example 100, {1-{1-[(4,4-difluorocyclohexyl)carbonyl]piperidin-4-yl}-3-[4-(7H-pyrrolo[2,3-d]pyrimidin-4-yl)-1H-pyrazol-1-yl]azetidin-3-yl}acetonitrile], the IC50 in assay [1] was in the range of 5 to 20 nM; against Jak2 (a.a. 828-1132), 50 to 100 nM. In addition, the “IC50 Ratio JAK2/JAK1” value in assay [2] turned out to be 6.6.

With `N#CCC1(n2ccc(-c3ncnc4[nH]ccc34)c2)CN(C2CCN(C(=O)c3nc(C(F)(F)F)cs3)CC2)C1` [Example 346, [3-[3-(7H-Pyrrolo[2,3-d]pyrimidin-4-yl)-1H-pyrrol-1-yl]-1-(1-{[4-(trifluoromethyl)-1,3-thiazol-2-yl]carbonyl}piperidin-4-yl)azetidin-3-yl]acetonitrile], the IC50 is not above 5 nM in assay [1] and 10 to 50 nM against Jak2 (a.a. 828-1132). Further, the “IC50 Ratio JAK2/JAK1” value in assay [2] stood at 5.9.

For `COc1ccc(F)c(C(=O)N2CCC(N3CC(CC#N)(n4cc(-c5ncnc6[nH]ccc56)cn4)C3)CC2)c1` [Example 27, {1-[1-(2-fluoro-5-methoxybenzoyl)piperidin-4-yl]-3-[4-(7H-pyrrolo[2,3-d]pyrimidin-4-yl)-1H-pyrazol-1-yl]azetidin-3-yl}acetonitrile], the IC50 is 5 to 20 nM in assay [1] and 50 to 100 nM against Jak2 (a.a. 828-1132). Also, the “IC50 Ratio JAK2/JAK1” value in assay [2] amounted to 5.1.

Turning to `N#CCC1(n2cc(-c3ncnc4[nH]ccc34)cn2)CN(C2CCN(C(=O)c3ccc(F)c(O)c3)CC2)C1` [Example 58, {1-[1-(4-fluoro-3-hydroxybenzoyl)piperidin-4-yl]-3-[4-(7H-pyrrolo[2,3-d]pyrimidin-4-yl)-1H-pyrazol-1-yl]azetidin-3-yl}acetonitrile], the IC50 in assay [1] was not above 5 nM; against Jak2 (a.a. 828-1132), 10 to 50 nM. In assay [2], the “IC50 Ratio JAK2/JAK1” value came out at 5.0.

`N#CCC1(n2cc(-c3ncnc4[nH]ccc34)cn2)CN(C2CCN(C(=O)Nc3ccc(C(F)(F)F)cc3)CC2)C1` [Example 167, 4-{3-(cyanomethyl)-3-[4-(7H-pyrrolo[2,3-d]pyrimidin-4-yl)-1H-pyrazol-1-yl]azetidin-1-yl}-N-[4-(trifluoromethyl)phenyl]piperidine-1-carboxamide]: the IC50 in assay [1] was not above 5 nM; at Jak2 (a.a. 828-1132), not above 10 nM. Further, the “IC50 Ratio JAK2/JAK1” value in assay [2] was found to be 2.0.

On to `N#CCC1(n2cc(-c3ncnc4[nH]ccc34)cn2)CN(C2CCN(C(=O)c3ccc(-c4ccccc4C#N)c(F)c3)CC2)C1` [Example 124, 4′-[(4-{3-(cyanomethyl)-3-[4-(7H-pyrrolo[2,3-d]pyrimidin-4-yl)-1H-pyrazol-1-yl]azetidin-1-yl}piperidin-1-yl)carbonyl]-2′-fluorobiphenyl-2-carbonitrile], for which the IC50 in assay [1] was not above 5 nM; against Jak2 (a.a. 828-1132), not above 10 nM. In assay [2], the “IC50 Ratio JAK2/JAK1” value was found to be 8.4.

`N#CCC1(n2cc(-c3ncnc4[nH]ccc34)cn2)CN(C2CCN(Cc3ccc(C#N)c(F)c3)CC2)C1` [Example 229, 4-[(4-{3-(cyanomethyl)-3-[4-(7H-pyrrolo[2,3-d]pyrimidin-4-yl)-1H-pyrazol-1-yl]azetidin-1-yl}piperidin-1-yl)methyl]-2-fluorobenzonitrile]: the concentration for half-maximal inhibition (IC50) in assay [1] was 5 to 20 nM; against Jak2 (a.a. 828-1132), 50 to 100 nM. In addition, in assay [2], the “IC50 Ratio JAK2/JAK1” value stood at 6.4.

For the compound `Cc1ccc(NC(=O)N2CCC(N3CC(CC#N)(n4cc(-c5ncnc6[nH]ccc56)cn4)C3)CC2)c(C)n1` [Example 189, 4-{3-(cyanomethyl)-3-[4-(7H-pyrrolo[2,3-d]pyrimidin-4-yl)-1H-pyrazol-1-yl]azetidin-1-yl}-N-(2,6-dimethylpyridin-3-yl)piperidine-1-carboxamide], the values for the IC50 (in assay [1]; against Jak2 (a.a. 828-1132)) were 5 to 20 nM and 10 to 50 nM, respectively. For the same compound, in assay [2], the “IC50 Ratio JAK2/JAK1” value was 3.5.

With `COc1cscc1C(=O)N1CCC(N2CC(CC#N)(n3cc(-c4ncnc5[nH]ccc45)cn3)C2)CC1` [Example 72, {1-{1-[(4-methoxy-3-thienyl)carbonyl]piperidin-4-yl}-3-[4-(7H-pyrrolo[2,3-d]pyrimidin-4-yl)-1H-pyrazol-1-yl]azetidin-3-yl}acetonitrile], the IC50 in assay [1] is not above 5 nM; on Jak2 (a.a. 828-1132), not above 10 nM. In addition, the “IC50 Ratio JAK2/JAK1” value in assay [2] was 6.6.

With `N#CCC1(n2cc(-c3ncnc4[nH]ccc34)cn2)CN(C2CCN(C(=O)Cc3ccccc3)CC2)C1` [Example 109, {1-[1-(phenylacetyl)piperidin-4-yl]-3-[4-(7H-pyrrolo[2,3-d]pyrimidin-4-yl)-1H-pyrazol-1-yl]azetidin-3-yl}acetonitrile], the IC50 lay in the range of 20 to 30 nM in assay [1] and 10 to 50 nM against Jak2 (a.a. 828-1132). Also, the “IC50 Ratio JAK2/JAK1” value in assay [2] was 1.1.

Regarding `N#CCC1(n2ccc(-c3ncnc4[nH]ccc34)c2)CN(C2CCN(C(=O)c3cc(OC(F)(F)F)ccc3F)CC2)C1` [Example 269, {1-{1-[2-fluoro-5-(trifluoromethoxy)benzoyl]piperidin-4-yl}-3-[3-(7H-pyrrolo[2,3-d]pyrimidin-4-yl)-1H-pyrrol-1-yl]azetidin-3-yl}acetonitrile], the IC50 in assay [1] is not above 5 nM; against Jak2 (a.a. 828-1132), 10 to 50 nM. Further, the “IC50 Ratio JAK2/JAK1” value in assay [2] was 5.0.

`N#CCC1(n2cc(-c3ncnc4[nH]ccc34)cn2)CN(C2CCN(C(=O)c3ccc(-c4cccc5cnccc45)c(F)c3)CC2)C1` [Example 130, {1-[1-(3-fluoro-4-isoquinolin-5-ylbenzoyl)piperidin-4-yl]-3-[4-(7H-pyrrolo[2,3-d]pyrimidin-4-yl)-1H-pyrazol-1-yl]azetidin-3-yl}acetonitrile]: the IC50 in assay [1] is not above 5 nM; on Jak2 (a.a. 828-1132) it was not above 10 nM. Moreover, in assay [2], the “IC50 Ratio JAK2/JAK1” value was 7.1.

Take `N#CCC1(n2cc(-c3ccnc4[nH]ccc34)cn2)CN(C2CCN(C(=O)Nc3ccc(C#N)cc3Cl)CC2)C1` [Example 313, N-(2-chloro-4-cyanophenyl)-4-{3-(cyanomethyl)-3-[4-(1H-pyrrolo[2,3-b]pyridin-4-yl)-1H-pyrazol-1-yl]azetidin-1-yl}piperidine-1-carboxamide]: the IC50 was not above 5 nM in assay [1] and 10 to 50 nM against Jak2 (a.a. 828-1132). For the same compound, in assay [2], the “IC50 Ratio JAK2/JAK1” value worked out at 14.3.

`Cc1nc(NC(=O)N2CCC(N3CC(CC#N)(n4cc(-c5ncnc6[nH]ccc56)cn4)C3)CC2)sc1C` [Example 192, 4-{3-(cyanomethyl)-3-[4-(7H-pyrrolo[2,3-d]pyrimidin-4-yl)-1H-pyrazol-1-yl]azetidin-1-yl}-N-(4,5-dimethyl-1,3-thiazol-2-yl)piperidine-1-carboxamide]: the IC50 was 5 to 20 nM in assay [1] and 10 to 50 nM at Jak2 (a.a. 828-1132). Moreover, in assay [2], the “IC50 Ratio JAK2/JAK1” value was 3.0.

One may read the IC50 as the concentration that inhibits the measured activity by half. Higher therefore signals a need for much substance.
